Assays:
[1] = molecular target: BaF3-EGFR (L858R/T790M/C797S) (Homo sapiens, UniProt P00533, T790M/C797S/L858R, cells depend on it); assay: CCK-8 cell proliferation, BaF3-EGFR(L858R/T790M/C797S); type: cell-based; settings: CCK-8, 72 hours; read-out: Average value of IC50 of inhibition against EGFR-mutant cells growth, BaF3-EGFR (L858R/T790M/C797S)
Description: (§1) Ba/F3 cells were obtained from Deutsche Sammlung von Mikroorganismen und Zellkulturen GmbH (DSMZ). […] All cells used in the study were verified by short tandem repeat (STR) analysis conducted by Genesky.
(§2) Tumor cell viability was assessed using a CCK-8 cell counting kit (A311-01/02, Vazyme, Nanjing, China). Cells were seeded at a density of 3000 cells per well into 96-well plates and cultured overnight. Subsequently, the cells were treated with compounds of different concentrations and incubated for 72 hours. After 72 hours, 10 μL of CCK-8 solution was added to each well. The plates were then returned to the incubator and incubated at 37° C. for 2 hours. The absorbance was measured at 450 nm using a microplate reader. A calibration curve was constructed using data obtained from wells containing known numbers of viable cells.

[2] = molecular target: BaF3-EGFR (19del/T790M/C797S) (Homo sapiens, UniProt P00533, T790M/C797S, cells depend on it, form not given); assay: CCK-8 cell proliferation, BaF3-EGFR(19del/T790M/C797S); type: cell-based; settings: CCK-8, 72 hours; read-out: Average value of IC50 of inhibition against EGFR-mutant cells growth, BaF3-EGFR (19del/T790M/C797S)
Description: as §1, §2

[3] = Pharmacokinetic parameters in rats; type: in vivo; settings: male, Sprague-Dawley, plasma, rat
Description: Sprague-Dawley rats (males, 3 per group), weighing 180 g to 220 g, were administered test compounds intravenously and orally at doses of 1 mg/kg and 5 mg/kg, respectively. The compounds were dissolved in a mixed solvent (5% DMSO+10% Solutol+85% PBS) for intravenous injection. 0.5% CMC-Na solution (800 cps to 1200 cps) was used as a suspension agent for oral administration. At designated time points, 0.2 mL of blood samples were collected via the jugular vein and placed into tubes containing K2-EDTA, stored on ice, and then centrifuged. Sampling intervals for the injection group were 0.083, 0.25, 0.5, 1, 2, 4, 8, and 24 hours, while for the oral group, sampling intervals were 0.25, 0.5, 1, 2, 4, 6, 8, and 24 hours. The blood samples were centrifuged at 6800 g for 6 minutes at 2° C. to 8° C. within 1 hour after collection and stored frozen at approximately −80° C. Subsequently, 200 μL of MeOH was used to precipitate 20 μL of plasma samples containing 100 ng/mL IS. The mixture was vortexed for 1 minute and then centrifuged at 18000 g for 7 minutes. 200 μL of the supernatant was transferred to a 96-well plate, and 1 μL of the supernatant sample was injected for LC-MS/MS analysis. Finally, Phoenix WinNonlin7.0 software was used to calculate the pharmacokinetic (PK) parameters.

EGFR^WT = molecular target: T1, EGFR^WT (Homo sapiens, UniProt P00533); assay: ELISA kinase activity inhibition, wild-type EGFR; type: biochemical; settings: ATP 5 μM, read-out: The average IC50 value (nM) for inhibiting the activity of different tyrosine kinases, EGFR^WT
T1 construct: purchased Eurofins
T1 sequence (P00533 25-1210): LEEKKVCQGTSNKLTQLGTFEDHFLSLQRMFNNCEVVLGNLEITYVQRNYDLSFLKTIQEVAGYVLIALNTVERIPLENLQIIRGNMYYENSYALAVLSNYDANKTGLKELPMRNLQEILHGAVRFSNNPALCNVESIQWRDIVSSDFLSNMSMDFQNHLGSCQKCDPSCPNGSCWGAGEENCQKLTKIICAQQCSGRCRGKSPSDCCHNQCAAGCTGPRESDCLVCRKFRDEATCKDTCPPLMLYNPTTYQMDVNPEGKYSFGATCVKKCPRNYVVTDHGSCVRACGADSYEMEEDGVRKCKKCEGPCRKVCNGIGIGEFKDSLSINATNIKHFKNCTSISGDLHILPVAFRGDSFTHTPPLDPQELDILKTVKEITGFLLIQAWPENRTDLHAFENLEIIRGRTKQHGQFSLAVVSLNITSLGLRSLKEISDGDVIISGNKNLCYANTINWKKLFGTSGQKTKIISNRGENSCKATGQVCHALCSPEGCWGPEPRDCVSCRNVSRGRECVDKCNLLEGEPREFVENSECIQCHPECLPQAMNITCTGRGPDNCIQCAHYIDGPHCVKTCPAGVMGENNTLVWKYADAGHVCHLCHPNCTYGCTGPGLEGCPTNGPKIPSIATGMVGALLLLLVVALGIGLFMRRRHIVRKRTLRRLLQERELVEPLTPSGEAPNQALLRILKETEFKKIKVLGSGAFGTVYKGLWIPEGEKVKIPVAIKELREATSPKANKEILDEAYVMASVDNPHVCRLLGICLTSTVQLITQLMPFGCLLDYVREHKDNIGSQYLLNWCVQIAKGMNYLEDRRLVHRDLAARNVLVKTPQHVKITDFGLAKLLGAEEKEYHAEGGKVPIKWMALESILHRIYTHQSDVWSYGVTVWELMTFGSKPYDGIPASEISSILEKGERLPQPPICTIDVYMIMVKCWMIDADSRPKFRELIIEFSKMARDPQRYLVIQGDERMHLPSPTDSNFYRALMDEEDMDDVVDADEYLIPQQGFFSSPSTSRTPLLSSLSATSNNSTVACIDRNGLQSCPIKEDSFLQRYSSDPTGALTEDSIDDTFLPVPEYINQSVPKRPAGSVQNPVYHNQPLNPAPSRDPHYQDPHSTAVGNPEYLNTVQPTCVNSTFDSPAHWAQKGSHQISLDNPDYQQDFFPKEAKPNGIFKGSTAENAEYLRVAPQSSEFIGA
Description: (§3) EGFR (WT) is a wild-type epidermal growth factor receptor.
(§4) Enzyme-Linked Immunosorbent Assay (ELISA) was used to detect the inhibitory effect of compounds on kinase activity.
(§5) The main experimental steps were as follows: Enzyme reaction substrate Poly (Glu, Tyr)4:1 was diluted with potassium free PBS (10 mM sodium phosphate buffer, 150 mM NaCl, pH 7.2-7.4) to 20 μg/mL, and reacted at 37° C. for 12 hours to 16 hours to coat the enzyme-linked immunosorbent assay plate. ATP solution (final concentration 5 μM) diluted with reaction buffer (50 mM HEPES pH 7.4, 50 mM MgCl2, 0.5 mM MnCl2, 0.2 mM Na3VO4, 1 mM DTT) was added to each well, followed by the test compound or solvent control, then the kinase reaction was initiated and the plate was shaken at 37° C. for 1 hour. The plate was washed three times with T-PBS, then added antibody PY99. The plate was shaken at 37° C. for 0.5 hours. After washing the plate with T-PBS, added horseradish peroxidase-labeled IgG and shaken at 37° C. for 0.5 hours. After washing the plate again, added 2 mg/mL of OPD colorimetric solution and incubated at 25° C. in the dark for 1 minutes to 10 minutes. […] The IC50 values were obtained from the inhibition curve analysis.

BaF3 parent cell = assay: CCK-8 cell proliferation, BaF3 parent cell; type: cell-based; settings: Mus musculus, BaF3; CCK-8, 72 hours; read-out: Average value of IC50 of inhibition against cells growth, BaF3 parent cell
From the text: (§6) Ba/F3 cells were obtained from Deutsche Sammlung von Mikroorganismen und Zellkulturen GmbH (DSMZ). Ba/F3 cells stably expressing EGFR19del/T790M/C797S or EGFR L858R/T790M/C797S were generated by infecting parental cells with corresponding retroviruses. PC-9-OR was a tumor cell model obtained by simultaneously knocking in T790M and C797S mutations into 19del-activating mutation-dependent PC-9 tumor cells using CRISPR technology. This model, which proliferated dependent on EGFR19del/T790M/C797S resistance mutation, was used to evaluate the inhibitory activity of compounds against EGFR19del/T790M/C797S resistance mutants (Cancer Science. 2022; 113:709-720). All cells used in the study were verified by short tandem repeat (STR) analysis conducted by Genesky.
as §2

EGFR^L858R/T790M/C797S = EGFR^L858R/T790M/C797S (Homo sapiens, UniProt P00533, C797S/L858R/T790M); assay: ELISA kinase activity inhibition, EGFR L858R/T790M/C797S; type: biochemical; settings: ATP 5 μM, read-out: The average IC50 value (nM) for inhibiting the activity of different tyrosine kinases, EGFR^L858R/T790M/C797S
Sequence of EGFR^L858R/T790M/C797S (P00533 25-1210 T790M/C797S/L858R): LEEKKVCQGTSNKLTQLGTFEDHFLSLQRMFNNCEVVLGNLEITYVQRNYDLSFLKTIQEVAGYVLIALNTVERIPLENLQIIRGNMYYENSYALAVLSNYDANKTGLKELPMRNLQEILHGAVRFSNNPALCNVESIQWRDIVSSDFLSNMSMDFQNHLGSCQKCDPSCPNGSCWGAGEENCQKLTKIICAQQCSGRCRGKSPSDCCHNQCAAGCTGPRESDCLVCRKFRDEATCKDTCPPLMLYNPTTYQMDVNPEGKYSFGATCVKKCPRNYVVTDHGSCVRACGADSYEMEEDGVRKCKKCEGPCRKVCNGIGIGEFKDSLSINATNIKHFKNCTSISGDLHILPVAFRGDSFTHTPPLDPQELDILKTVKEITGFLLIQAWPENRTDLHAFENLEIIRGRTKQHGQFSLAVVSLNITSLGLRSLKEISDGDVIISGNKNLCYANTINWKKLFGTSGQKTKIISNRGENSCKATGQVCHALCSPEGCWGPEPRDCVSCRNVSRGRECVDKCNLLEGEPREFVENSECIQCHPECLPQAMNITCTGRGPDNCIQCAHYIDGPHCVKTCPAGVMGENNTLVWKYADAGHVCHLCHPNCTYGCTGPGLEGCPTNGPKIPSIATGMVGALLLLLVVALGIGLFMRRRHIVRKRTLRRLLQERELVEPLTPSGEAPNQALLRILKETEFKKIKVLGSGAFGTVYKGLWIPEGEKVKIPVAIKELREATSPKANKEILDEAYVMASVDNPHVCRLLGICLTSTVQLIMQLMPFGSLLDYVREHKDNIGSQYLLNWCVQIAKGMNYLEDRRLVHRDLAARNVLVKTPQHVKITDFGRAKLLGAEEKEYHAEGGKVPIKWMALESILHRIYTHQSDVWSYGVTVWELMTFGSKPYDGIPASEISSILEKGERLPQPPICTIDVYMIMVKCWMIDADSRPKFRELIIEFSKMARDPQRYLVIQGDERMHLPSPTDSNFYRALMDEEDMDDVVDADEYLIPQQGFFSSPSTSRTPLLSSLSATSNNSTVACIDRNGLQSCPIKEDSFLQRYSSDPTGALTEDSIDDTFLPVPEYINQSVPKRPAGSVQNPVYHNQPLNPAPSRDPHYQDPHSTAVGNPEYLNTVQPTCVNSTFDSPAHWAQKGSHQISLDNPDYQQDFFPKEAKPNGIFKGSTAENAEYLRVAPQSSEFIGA
Description: as §4, §5

EGFR^19del/T790M/C797S = molecular target: T2, EGFR^19del/T790M/C797S (Homo sapiens, UniProt P00533, T790M/C797S, form not given); assay: ELISA kinase activity inhibition, EGFR 19del/T790M/C797S; type: biochemical; settings: ATP 5 μM, read-out: The average IC50 value (nM) for inhibiting the activity of different tyrosine kinases, EGFR^19del/T790M/C797S
T2 construct: fused on or other part: Probably a GST tag on the cytoplasmic fragment, as in the vendor's product
T2 sequence (P00533 with tags, fused parts or gaps DEL746-750/T790M/C797S, form open): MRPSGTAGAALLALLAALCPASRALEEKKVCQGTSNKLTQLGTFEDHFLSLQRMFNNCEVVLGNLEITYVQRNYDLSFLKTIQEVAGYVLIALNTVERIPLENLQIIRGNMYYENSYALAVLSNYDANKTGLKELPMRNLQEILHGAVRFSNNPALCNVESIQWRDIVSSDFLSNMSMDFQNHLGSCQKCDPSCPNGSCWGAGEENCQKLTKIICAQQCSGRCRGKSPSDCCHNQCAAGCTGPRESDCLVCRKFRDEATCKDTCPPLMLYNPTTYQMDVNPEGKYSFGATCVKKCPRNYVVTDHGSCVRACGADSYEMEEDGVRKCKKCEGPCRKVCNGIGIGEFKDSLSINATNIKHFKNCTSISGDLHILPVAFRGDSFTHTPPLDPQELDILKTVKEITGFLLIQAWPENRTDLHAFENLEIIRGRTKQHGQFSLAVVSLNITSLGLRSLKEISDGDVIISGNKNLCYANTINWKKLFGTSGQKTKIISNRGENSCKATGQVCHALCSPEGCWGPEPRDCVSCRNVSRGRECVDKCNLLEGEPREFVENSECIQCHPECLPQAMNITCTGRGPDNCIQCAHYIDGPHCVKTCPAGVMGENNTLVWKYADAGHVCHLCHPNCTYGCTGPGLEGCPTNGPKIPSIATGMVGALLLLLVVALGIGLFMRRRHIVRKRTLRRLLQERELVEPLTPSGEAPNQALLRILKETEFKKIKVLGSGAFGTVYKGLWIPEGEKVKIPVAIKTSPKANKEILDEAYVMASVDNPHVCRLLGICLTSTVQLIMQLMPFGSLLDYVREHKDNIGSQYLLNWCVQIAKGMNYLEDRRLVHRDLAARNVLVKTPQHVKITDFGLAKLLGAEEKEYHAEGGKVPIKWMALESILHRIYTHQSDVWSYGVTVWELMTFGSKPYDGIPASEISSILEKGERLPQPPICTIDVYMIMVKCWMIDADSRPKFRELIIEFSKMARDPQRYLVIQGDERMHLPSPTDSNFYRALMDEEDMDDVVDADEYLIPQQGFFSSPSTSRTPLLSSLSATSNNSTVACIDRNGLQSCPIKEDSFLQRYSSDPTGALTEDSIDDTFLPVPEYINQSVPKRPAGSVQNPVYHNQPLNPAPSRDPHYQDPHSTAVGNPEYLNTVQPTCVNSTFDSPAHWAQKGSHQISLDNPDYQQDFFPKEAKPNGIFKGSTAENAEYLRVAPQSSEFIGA
Description: as §3, §4, §5

[4] = tested on: PC-9-OR (19del/T790M/C797S); assay: CCK-8 cell proliferation, PC-9-OR; type: cell-based; settings: PC9-OR; CCK-8, 72 hours; read-out: Average value of IC50 of inhibition against EGFR-mutant cells growth, PC-9-OR (19del/T790M/C797S)
From the text: as §6, §2

Sequence of BaF3-EGFR (L858R/T790M/C797S) (P00533 whole entry T790M/C797S/L858R): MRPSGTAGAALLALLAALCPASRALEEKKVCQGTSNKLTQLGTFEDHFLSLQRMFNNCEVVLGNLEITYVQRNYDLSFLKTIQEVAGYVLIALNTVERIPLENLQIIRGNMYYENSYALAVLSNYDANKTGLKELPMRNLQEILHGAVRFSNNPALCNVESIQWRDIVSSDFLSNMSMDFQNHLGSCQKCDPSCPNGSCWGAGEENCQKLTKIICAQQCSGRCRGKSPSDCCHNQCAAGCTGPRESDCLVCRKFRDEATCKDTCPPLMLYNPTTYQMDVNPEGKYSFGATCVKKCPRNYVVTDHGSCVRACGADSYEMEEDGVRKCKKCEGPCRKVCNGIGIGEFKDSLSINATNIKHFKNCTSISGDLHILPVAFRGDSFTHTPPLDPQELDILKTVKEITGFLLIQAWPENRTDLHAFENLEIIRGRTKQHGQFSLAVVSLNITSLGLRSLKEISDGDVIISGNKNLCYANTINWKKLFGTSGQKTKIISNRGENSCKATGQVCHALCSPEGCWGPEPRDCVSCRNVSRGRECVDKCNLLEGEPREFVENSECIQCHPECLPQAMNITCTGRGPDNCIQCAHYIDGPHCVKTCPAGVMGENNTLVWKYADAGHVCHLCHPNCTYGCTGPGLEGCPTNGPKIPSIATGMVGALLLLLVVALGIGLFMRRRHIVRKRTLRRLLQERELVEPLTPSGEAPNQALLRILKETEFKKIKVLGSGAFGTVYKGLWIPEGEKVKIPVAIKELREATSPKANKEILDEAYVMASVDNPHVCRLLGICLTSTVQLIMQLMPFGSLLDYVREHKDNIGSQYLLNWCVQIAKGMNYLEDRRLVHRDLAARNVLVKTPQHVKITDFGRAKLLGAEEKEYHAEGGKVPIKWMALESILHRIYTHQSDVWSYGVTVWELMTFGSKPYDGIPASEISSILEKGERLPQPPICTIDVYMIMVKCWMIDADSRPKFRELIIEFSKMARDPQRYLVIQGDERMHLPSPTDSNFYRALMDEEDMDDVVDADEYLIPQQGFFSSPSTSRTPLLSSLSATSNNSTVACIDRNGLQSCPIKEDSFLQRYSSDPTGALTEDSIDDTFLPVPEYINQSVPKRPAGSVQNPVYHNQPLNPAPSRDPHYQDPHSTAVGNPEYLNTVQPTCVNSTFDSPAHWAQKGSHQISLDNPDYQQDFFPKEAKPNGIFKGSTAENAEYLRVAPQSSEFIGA

GI50 [1] [nM]	GI50 [2] [nM]	Cmax ([3]; IV 1 mg/kg) [ng/mL]	clearance ([3]; IV 1 mg/kg) [mL/min/kg]	half-life ([3]; IV 1 mg/kg) [min]	Cmax ([3]; PO 5 mg/kg) [ng/mL]	half-life ([3]; PO 5 mg/kg) [min]	bioavailability ([3]; PO 5 mg/kg, read-out: F (oral bioavailability)) [%]	IC50 (EGFR^WT) [nM]	IC50 (BaF3 parent cell) [nM]	IC50 (EGFR^L858R/T790M/C797S) [nM]	IC50 (EGFR^19del/T790M/C797S) [nM]	IC50 [4] [nM]	SMILES
74	70	–	–	–	–	–	–	> 1000	217	4.9	6.3	85	CCS(=O)(=O)n1cc2c3ccc(cc31)OCCCn1cc(cn1)-c1cc(ccc1N1CCOCC1)Nc1ncc(Cl)c-2n1 [HC871, (Z)-2^5-Chloro-1^1-(ethylsulfonyl)-4^4-morpholino-1^1H,5^1H-9-oxa-3-aza-1(3,6)-indola-2(4,2)-pyrimidina-5(4,1)-pyrazola-4(1,3)-benzenacyclononaphane]
108	86	–	–	–	–	–	–	37.6	445	1.9	7.3	149	CCS(=O)(=O)n1cc2c3ccc(cc31)OCCCn1cc(cn1)-c1cc(c(C)cc1N1CCOCC1)Nc1nccc-2n1 [HC950M, (Z)-1^1-Ethylsulfonyl-4^6-methyl-4^4-morpholino-1^1H,5^1H-9-oxa-3-aza-1 (3,6)-indole-2(4,2)-pyrimidine-5(4,1) pyrazol-4(1,3)-benzenacyclononaphane]
75	91	–	–	–	–	–	–	802	274	9.3	2.7	155	CCS(=O)(=O)n1cc2c3ccc(cc31)OCCCCn1cc(cn1)-c1cc(ccc1N1CCOCC1)Nc1ncc(Cl)c-2n1 [HC8714, 2^5-Chloro-1^1-Ethylsulfonyl-4^4-morpholino-1^1H,5^1H-10-oxa-3-aza-1(3,6)-Indole-2(4,2)-Pyrimidin-5(4,1)-Pyrazol-4(1,3)-Phenyldecane]

Second part, the molecule before the results:

SMILES	GI50 [1] [nM]	GI50 [2] [nM]	Cmax ([3]; IV 1 mg/kg) [ng/mL]	clearance ([3]; IV 1 mg/kg) [mL/min/kg]	half-life ([3]; IV 1 mg/kg) [min]	Cmax ([3]; PO 5 mg/kg) [ng/mL]	half-life ([3]; PO 5 mg/kg) [min]	bioavailability ([3]; PO 5 mg/kg, read-out: F (oral bioavailability)) [%]	IC50 (EGFR^WT) [nM]	IC50 (BaF3 parent cell) [nM]	IC50 (EGFR^L858R/T790M/C797S) [nM]	IC50 (EGFR^19del/T790M/C797S) [nM]	IC50 [4] [nM]
CCS(=O)(=O)n1cc2c3ccc(cc31)OCCCn1cc(cn1)-c1cc(c(OC)cc1N1CCOCC1)Nc1nccc-2n1 [HC9591, (Z)-1^1-Ethylsulfonyl-4^6-methoxy-4^4-morpholin-1^1H,5^1H-9-oxa-3-aza-1 (3,6)-indole-2(4,2)-pyrimidine-5(4,1) pyrazole-4(1,3)-benzenacyclononaphane]	301	189	1570 ± 220	9.2 ± 2.1	426 ± 57	330 ± 56.5	487.8 ± 4.8	39.6 ± 9	632	1820	2	1.7	269
CCS(=O)(=O)n1cc2c3ccc(cc31)OCCCn1cc(cn1)-c1cc(c(C)cc1N1CCN(C)CC1)Nc1ncc(Cl)c-2n1 [HC9452, 2^5-chloro-1^1-ethylsulfonyl-4^6-methyl-4^4-(4-methylpiperazin-1-yl)-1^1H,5^1H-9-oxa-3-aza-1(3,6)-indole-2(4,2)-pyrimidine-5(4,1)-pyrazole-4(1,3)-benzenacyclononaphane]	591	472	–	–	–	–	–	–	44.7	1790	4.3	4.3	81
CCS(=O)(=O)n1cc2c3ccc(cc31)OCCCn1cc(cn1)-c1cc(c(OC)cc1N1CCC(N3CCN(C)CC3)CC1)Nc1nccc-2n1 [HC9594, (Z)-1^1-ethylsulfonyl-4^6-methoxy-4^4-(4-methylpiperazin-1-yl) piperidin-1-yl)-1^1H,5^1H-9-oxa-3-aza-1(3,6)-indole-2(4,2)-pyrimidine-5(4,1)-pyrazolol-4(1,3)-benzenacyclononaphane]	735	1220	–	–	–	–	–	–	112	> 10000	2.2	1.7	925

From patent publication US20260184725A1, “CYCLIC 2-AMINOPYRIMIDINE COMPOUND AND PHARMACEUTICAL COMPOSITION AND USE THEREOF” (SHANGHAI INSTITUTE OF ORGANIC CHEMISTRY, CHINESE ACADEMY OF …, priority 2023, published 2026)
